# Source: ChEMBL document CHEMBL3421620, “A facile synthesis of novel miconazole analogues and the evaluation of their antifungal activity” (2015)
# Assays:
# Format in all cases: functional
# Yarrowia lipolytica = test: Antifungal activity against Candida lipolytica by broth microdilution method
# Candida albicans [1] = test: Antifungal activity against Candida albicans Strain 19 by broth microdilution method
# Candida albicans [2] = test: Antifungal activity against Candida albicans Strain 27 by broth microdilution method
# Candida albicans [3] = test: Antifungal activity against Candida albicans Strain 28 by broth microdilution method
# Candida albicans [4] = test: Antifungal activity against Candida albicans Strain 8 by broth microdilution method
# Candida albicans [5] = test: Antifungal activity against Candida albicans Strain 23 by broth microdilution method
# Candida albicans [6] = test: Antifungal activity against Candida albicans Strain 17 by broth microdilution method
# Candida albicans [7] = test: Antifungal activity against Candida albicans Strain 16 by broth microdilution method
# Candida albicans [8] = test: Antifungal activity against Candida albicans Strain 14 by broth microdilution method
# Candida albicans [9] = test: Antifungal activity against Candida albicans Strain 2 by broth microdilution method
# Candida tropicalis = test: Antifungal activity against Candida tropicalis ATCC 13803 by broth microdilution method
# Candida albicans [10] = test: Antifungal activity against Candida albicans Strain 18 by broth microdilution method
# Candida albicans [11] = test: Antifungal activity against Candida albicans Strain 10 by broth microdilution method
# Cyberlindnera jadinii = test: Antifungal activity against Candida utilis ATCC 9226 by broth microdilution method; conditions: Williopsis jadinii
# Candida albicans [12] = test: Antifungal activity against Candida albicans Strain 5 by broth microdilution method
# Candida albicans [13] = test: Antifungal activity against Candida albicans Strain 29 by broth microdilution method
# Rhizopus arrhizus = test: Antifungal activity against Rhizopus oryzae ATCC 10329 by broth microdilution method
# Candida albicans [14] = test: Antifungal activity against Candida albicans Strain 20 by broth microdilution method
# Candida albicans [15] = test: Antifungal activity against Candida albicans Strain 26 by broth microdilution method
# Mucor hiemalis = test: Antifungal activity against Mucor hiemalis ATCC 8690 by broth microdilution method
# Candida albicans [16] = test: Antifungal activity against Candida albicans Strain 13 by broth microdilution method
# Candida albicans [17] = test: Antifungal activity against Candida albicans ATCC 10231 by broth microdilution method
# Candida albicans [18] = test: Antifungal activity against Candida albicans Strain 22 by broth microdilution method
# Candida albicans [19] = test: Antifungal activity against Candida albicans Strain 21 by broth microdilution method
# Nakaseomyces glabratus = test: Antifungal activity against Candida glabrata by broth microdilution method
# Candida albicans [20] = test: Antifungal activity against Candida albicans Strain 6 by broth microdilution method
# Pichia kudriavzevii = test: Antifungal activity against Candida krusei by broth microdilution method
# Candida albicans [21] = test: Antifungal activity against Candida albicans Strain 24 by broth microdilution method
# Candida albicans [22] = test: Antifungal activity against Candida albicans Strain 12 by broth microdilution method
# Candida albicans [23] = test: Antifungal activity against Candida albicans Strain 7 by broth microdilution method
# Candida albicans [24] = test: Antifungal activity against Candida albicans Strain 4 by broth microdilution method
# Candida albicans [25] = test: Antifungal activity against Candida albicans Strain 3 by broth microdilution method
# Aspergillus fumigatus = test: Antifungal activity against Aspergillus fumigatus 16907 by broth microdilution method
# Candida albicans [26] = test: Antifungal activity against Candida albicans Strain 25 by broth microdilution method
# Candida albicans [27] = test: Antifungal activity against Candida albicans Strain 11 by broth microdilution method
# Candida albicans [28] = test: Antifungal activity against Candida albicans Strain 1 by broth microdilution method
# Candida albicans [29] = test: Antifungal activity against Candida albicans Strain 9 by broth microdilution method
# [30] = Antifungal activity against Trichosporon cutaneum ATCC 28592 by broth microdilution method; conditions: Cutaneotrichosporon cutaneum
# Candida parapsilosis = test: Antifungal activity against Candida parapsilosis by broth microdilution method; conditions: Lodderomyces parapsilosis
# Candida albicans [31] = test: Antifungal activity against Candida albicans Strain 15 by broth microdilution method
# Kluyveromyces marxianus = test: Antifungal activity against Candida pseudotropicalis by broth microdilution method
smiles,measurement,setting,value
O=C(O)C(OC(Cn1ccnc1)c1ccc(Cl)cc1Cl)c1ccccc1Cl (stereo not drawn),MIC,Yarrowia lipolytica,1 µg/mL
same,MIC,Candida albicans [1],0.25 µg/mL
same,MIC,Candida albicans [2],0.25 µg/mL
same,MIC,Candida albicans [3],0.5 µg/mL
same,MIC,Candida albicans [4],0.5 µg/mL
same,MIC,Candida albicans [5],0.12 µg/mL
same,MIC,Candida albicans [6],0.25 µg/mL
same,MIC,Candida albicans [7],0.25 µg/mL
same,MIC,Candida albicans [8],0.12 µg/mL
same,MIC,Candida albicans [9],0.25 µg/mL
same,MIC,Candida tropicalis,0.5 µg/mL
same,MIC,Candida albicans [10],0.12 µg/mL
same,MIC,Candida albicans [11],0.25 µg/mL
same,MIC,Cyberlindnera jadinii,0.5 µg/mL
same,MIC,Candida albicans [12],0.25 µg/mL
same,MIC,Candida albicans [13],0.5 µg/mL
same,MIC,Rhizopus arrhizus,> 16 µg/mL
same,MIC,Candida albicans [14],0.12 µg/mL
same,MIC,Candida albicans [15],0.25 µg/mL
same,MIC,Mucor hiemalis,> 16 µg/mL
same,MIC,Candida albicans [16],0.25 µg/mL
same,MIC,Candida albicans [17],0.06 µg/mL
same,MIC,Candida albicans [18],0.12 µg/mL
same,MIC,Candida albicans [19],0.5 µg/mL
same,MIC,Nakaseomyces glabratus,1 µg/mL
same,MIC,Candida albicans [20],0.12 µg/mL
same,MIC,Pichia kudriavzevii,0.5 µg/mL
same,MIC,Candida albicans [21],0.12 µg/mL
same,MIC,Candida albicans [22],0.25 µg/mL
same,MIC,Candida albicans [23],0.25 µg/mL
same,MIC,Candida albicans [24],0.25 µg/mL
same,MIC,Candida albicans [25],0.12 µg/mL
same,MIC,Aspergillus fumigatus,8 µg/mL
same,MIC,Candida albicans [26],0.25 µg/mL
same,MIC,Candida albicans [27],0.25 µg/mL
same,MIC,Candida albicans [28],0.25 µg/mL
same,MIC,Candida albicans [29],0.5 µg/mL
same,MIC,[30],> 16 µg/mL
same,MIC,Candida parapsilosis,1 µg/mL
same,MIC,Candida albicans [31],0.5 µg/mL
same,MIC,Kluyveromyces marxianus,1 µg/mL
COc1ccc(CCOC(Cn2ccnc2)c2ccc(Cl)cc2Cl)cc1OC (stereo not drawn),MIC,Yarrowia lipolytica,0.5 µg/mL
same,MIC,Candida albicans [1],0.12 µg/mL
same,MIC,Candida albicans [2],0.25 µg/mL
same,MIC,Candida albicans [3],0.25 µg/mL
same,MIC,Candida albicans [4],0.12 µg/mL
same,MIC,Candida albicans [5],0.12 µg/mL
same,MIC,Candida albicans [6],0.5 µg/mL
same,MIC,Candida albicans [7],0.12 µg/mL
same,MIC,Candida albicans [8],0.5 µg/mL
same,MIC,Candida albicans [9],0.5 µg/mL
same,MIC,Candida tropicalis,1 µg/mL
same,MIC,Candida albicans [10],0.06 µg/mL
same,MIC,Candida albicans [11],0.5 µg/mL
same,MIC,Cyberlindnera jadinii,1 µg/mL
same,MIC,Candida albicans [12],0.5 µg/mL
same,MIC,Candida albicans [13],0.5 µg/mL
same,MIC,Rhizopus arrhizus,> 16 µg/mL
same,MIC,Candida albicans [14],0.12 µg/mL
same,MIC,Candida albicans [15],0.5 µg/mL
same,MIC,Mucor hiemalis,> 16 µg/mL
same,MIC,Candida albicans [16],0.5 µg/mL
same,MIC,Candida albicans [17],0.12 µg/mL
same,MIC,Candida albicans [18],0.12 µg/mL
same,MIC,Candida albicans [19],0.5 µg/mL
same,MIC,Nakaseomyces glabratus,0.5 µg/mL
same,MIC,Candida albicans [20],0.12 µg/mL
same,MIC,Pichia kudriavzevii,2 µg/mL
same,MIC,Candida albicans [21],0.5 µg/mL
same,MIC,Candida albicans [22],0.5 µg/mL
same,MIC,Candida albicans [23],0.5 µg/mL
same,MIC,Candida albicans [24],0.06 µg/mL
same,MIC,Candida albicans [25],0.12 µg/mL
same,MIC,Aspergillus fumigatus,4 µg/mL
same,MIC,Candida albicans [26],0.5 µg/mL
same,MIC,Candida albicans [27],0.5 µg/mL
same,MIC,Candida albicans [28],0.5 µg/mL
same,MIC,Candida albicans [29],0.5 µg/mL
same,MIC,[30],16 µg/mL
same,MIC,Candida parapsilosis,2 µg/mL
same,MIC,Candida albicans [31],0.5 µg/mL
same,MIC,Kluyveromyces marxianus,1 µg/mL
OCc1ccc(COC(Cn2ccnc2)c2ccc(Cl)cc2Cl)cc1 (stereo not drawn),MIC,Yarrowia lipolytica,0.25 µg/mL
same,MIC,Candida albicans [1],0.12 µg/mL
same,MIC,Candida albicans [2],0.12 µg/mL
same,MIC,Candida albicans [3],0.12 µg/mL
same,MIC,Candida albicans [4],0.12 µg/mL
same,MIC,Candida albicans [5],0.25 µg/mL
same,MIC,Candida albicans [6],0.12 µg/mL
same,MIC,Candida albicans [7],0.12 µg/mL
same,MIC,Candida albicans [8],0.12 µg/mL
same,MIC,Candida albicans [9],0.12 µg/mL
same,MIC,Candida tropicalis,0.5 µg/mL
same,MIC,Candida albicans [10],0.06 µg/mL
same,MIC,Candida albicans [11],0.12 µg/mL
same,MIC,Cyberlindnera jadinii,0.5 µg/mL
same,MIC,Candida albicans [12],0.12 µg/mL
same,MIC,Candida albicans [13],0.5 µg/mL
same,MIC,Rhizopus arrhizus,> 16 µg/mL
same,MIC,Candida albicans [14],0.06 µg/mL
same,MIC,Candida albicans [15],0.25 µg/mL
same,MIC,Mucor hiemalis,> 16 µg/mL
same,MIC,Candida albicans [16],0.12 µg/mL
same,MIC,Candida albicans [17],0.12 µg/mL
same,MIC,Candida albicans [18],0.12 µg/mL
same,MIC,Candida albicans [19],0.25 µg/mL
same,MIC,Nakaseomyces glabratus,0.5 µg/mL
same,MIC,Candida albicans [20],0.12 µg/mL
same,MIC,Pichia kudriavzevii,1 µg/mL
same,MIC,Candida albicans [21],0.12 µg/mL
same,MIC,Candida albicans [22],0.12 µg/mL
same,MIC,Candida albicans [23],0.12 µg/mL
same,MIC,Candida albicans [24],0.12 µg/mL
same,MIC,Candida albicans [25],0.12 µg/mL
same,MIC,Aspergillus fumigatus,4 µg/mL
same,MIC,Candida albicans [26],0.12 µg/mL
same,MIC,Candida albicans [27],0.25 µg/mL
same,MIC,Candida albicans [28],0.12 µg/mL
same,MIC,Candida albicans [29],0.5 µg/mL
same,MIC,[30],16 µg/mL
same,MIC,Candida parapsilosis,1 µg/mL
same,MIC,Candida albicans [31],0.25 µg/mL
same,MIC,Kluyveromyces marxianus,0.5 µg/mL
